Test results reported in patent US10774064B2 (Cadent Therapeutics, Inc., priority 2016, dated 2020).

Target: T1, small-conductance Ca2+-activated K+ channels (SK channels, subtype 2) (Homo sapiens, UniProt Q9H2S1)
T1 construct: expressed in transfected cells; host or cells: HEK293
Experiment: whole-cell patch-clamp of ionic current through SK2 channels in HEK293 cells (SC100)
Format: cell-based
Settings: whole-cell patch-clamp, HEK293 cells expressing SK2 channels; concentration that increases the basal current by 100%
Outline: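 SC100, the concentration doubling basal current (a 100% increase), was taken from SK2 currents recorded by whole-cell patch-clamp in SK2-expressing HEK293 cells.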

Structure (SMILES) | SC100 (μM)
Cc1csc(-c2nc(NC3CCC(F)(F)CC3)cc(N3CC4(COC4)C3)n2)n1 [NSSy5664] | ++ (++ means 200 nM-1000 nM)
Cc1ccn(-c2nc(NC3CC=CCC3)cc(N3CC4(COC4)C3)n2)n1 (stereo not drawn) [NSSy5670] | ++ (++ means 200 nM-1000 nM)
COC(=O)N(C)C1CC(Oc2cc(NC3CCC(F)(F)CC3)nc(-n3ccc(C)n3)n2)C1 (stereo not drawn) [NSSy5672, methyl (3-((6-((4,4-difluorocyclohexyl)amino)-2-(3-methyl-1H-pyrazol-1-yl)pyrimidin-4-yl)oxy)cyclobutyl)(methyl)carbamate] | ++ (++ means 200 nM-1000 nM)
Cc1csc(-c2cc(N3CCN(C)C(=O)C3)cc(NC3CCC(F)(F)CC3)n2)n1 [NSSy5674, 4-(2-((4,4-difluorocyclohexyl)amino)-6-(4-methylthiazol-2-yl)pyridin-4-yl)-1-methylpiperazin-2-one] | +++ (+++ means <200 nM)
Cc1csc(-c2cc(N3CC4(COC4)C3)cc(NC3CCC(F)(F)CC3)n2)n1 [NSSy5675] | +++ (+++ means <200 nM)
Cc1ccn(-c2cc(C(O)c3cccnc3)cc(NC3CCC(F)(F)CC3)n2)n1 (stereo not drawn) [NSSy5676, (2-((4,4-difluorocyclohexyl)amino)-6-(3-methyl-1H-pyrazol-1-yl)pyridin-4-yl)(pyridin-3-yl)methanol] | +++ (+++ means <200 nM)
Cc1csc(-c2cc(N3CC(N(C)C)C3)cc(NC3CCC(F)(F)CC3)n2)n1 [NSSy5677] | ++ (++ means 200 nM-1000 nM)
Cc1csc(-c2cc(OCc3cn(C)nn3)cc(NC3CCC(F)(F)CC3)n2)n1 [NSSy5680] | +++ (+++ means <200 nM)
Cc1ccn(-c2cc(OCc3nnc(C)o3)cc(NC3CCC(F)(F)CC3)n2)n1 [NSSy5681] | + (+ means >1 uM)
Cc1csc(-c2cc(OCc3ncn(C)n3)cc(NC3CCC(F)(F)CC3)n2)n1 [NSSy5686] | ++ (++ means 200 nM-1000 nM)
Cc1csc(-c2cc(N3CC(C)(O)C3)cc(NC3CCC(F)(F)CC3)n2)n1 [NSSy5687] | ++ (++ means 200 nM-1000 nM)
Cc1csc(-c2cc(N3CCOCC3)cc(NC3CCC(F)CC3)n2)n1 (stereo not drawn) [NSSy5688] | ++ (++ means 200 nM-1000 nM)
Cc1csc(-c2nc(NC3CCC(F)(F)CC3)cc(OCc3ncnn3C)n2)n1 [NSSy5689] | + (+ means >1 uM)
Cc1csc(-c2nc(NC3CCC(F)(F)CC3)cc(OCc3ncn(C)n3)n2)n1 [NSSy5690] | ++ (++ means 200 nM-1000 nM)
Cc1ccn(-c2nc(NC3CCC(F)CC3)cc(N3CC4(COC4)C3)n2)n1 (stereo not drawn) [NSSy5691] | + (+ means >1 uM)
Cc1csc(-c2cc(OCc3nnc(C)o3)cc(NC3CCC(F)(F)CC3)n2)n1 [NSSy5694] | +++ (+++ means <200 nM)
Cc1csc(-c2cc(OCc3ncnn3C)cc(NC3CCC(F)(F)CC3)n2)n1 [NSSy5695] | ++ (++ means 200 nM-1000 nM)
Cc1csc(-c2nc(NC3CCC(F)CC3)cc(N3CCOCC3)n2)n1 (stereo not drawn) [NSSy5699, N-(4-fluorocyclohexyl)-2-(4-methylthiazol-2-yl)-6-morpholinopyrimidin-4-amine] | + (+ means >1 uM)
Cc1csc(-c2nc(NC3CC=CCC3)cc(N3CCOCC3)n2)n1 (stereo not drawn) [NSSy5703, N-(cyclohex-3-en-1-yl)-2-(4-methylthiazol-2-yl)-6-morpholinopyrimidin-4-amine] | + (+ means >1 uM)

Structure (SMILES) | SC100 (μM)
Cc1csc(-c2nc(NC3CCC(F)CC3)cc(OC3CN(C(=O)C(C)C)C3)n2)n1 (stereo not drawn) [NSSy5709] | ++ (++ means 200 nM-1000 nM)
COC(=O)N1CC(Oc2cc(NC3CCC(F)CC3)nc(-c3nc(C)cs3)n2)C1 (stereo not drawn) [NSSy5710] | ++ (++ means 200 nM-1000 nM)
CN(C)C1CN(c2cc(Nc3ccc(F)cc3)nc(-n3ccc(CF)n3)c2)C1 [NSSy5713] | + (+ means >1 uM)
FCc1csc(-c2nc(NC3CCC(F)(F)CC3)cc(N3CC4(COC4)C3)n2)n1 [NSSy5715, N-(4,4-difluorocyclohexyl)-2-(4-(fluoromethyl)thiazol-2-yl)-6-(2-oxa-6-azaspiro[3.3]heptan-6-yl)pyrimidin-4-amine] | ++ (++ means 200 nM-1000 nM)
Cc1csc(-c2cc(OCc3cnnn3C)cc(NC3CCC(F)(F)CC3)n2)n1 [NSSy5717] | +++ (+++ means <200 nM)
Cc1ccn(-c2cc(N3CC(C)(O)C3)cc(NC3CCC(F)(F)CC3)n2)n1 [NSSy5721] | ++ (++ means 200 nM-1000 nM)
CCC(=O)N1CC(Oc2cc(NC3CCC(F)(F)CC3)nc(-c3nc(C)cs3)n2)C1 [NSSy5726] | ++ (++ means 200 nM-1000 nM)
COC(=O)N(C)C1CC(Oc2cc(NC3CCC(F)(F)CC3)nc(-c3nc(C)cs3)n2)C1 (stereo not drawn) [NSSy5730] | ++ (++ means 200 nM-1000 nM)
Cc1ccn(-c2cc(OCc3ncnn3C)cc(NC3CCC(F)(F)CC3)n2)n1 [NSSy5737] | ++ (++ means 200 nM-1000 nM)
Cc1csc(-c2nc(NC3CCC(F)(F)CC3)cc(OC3CC(C)(O)C3)n2)n1 (stereo not drawn) [NSSy5740] | ++ (++ means 200 nM-1000 nM)
COC(=O)N1CC(Oc2cc(NC3CCC(F)CC3)nc(-n3ccc(C)n3)n2)C1 (stereo not drawn) [NSSy5741] | + (+ means >1 uM)
Cc1ccn(-c2cc(N3CCOCC3)cc(NC3CC=CCC3)n2)n1 (stereo not drawn) [NSSy5759, N-(cyclohex-3-en-1-yl)-6-(3-methyl-1H-pyrazol-1-yl)-4-morpholino pyridin-2-amine] | ++ (++ means 200 nM-1000 nM)
Cc1ccn(-c2nc(NC3CC=CCC3)cc(OC3CN(C(=O)C(C)C)C3)n2)n1 (stereo not drawn) [NSSy5762] | ++ (++ means 200 nM-1000 nM)
Cc1ccn(-c2cc(N3CC(N(C)C)C3)cc(NC3CCC(F)(F)CC3)n2)n1 [NSSy5763] | ++ (++ means 200 nM-1000 nM)
Cc1ccn(-c2nc(NC3CCC(F)CC3)cc(OC3CN(C(=O)C(C)C)C3)n2)n1 (stereo not drawn) [NSSy5765] | ++ (++ means 200 nM-1000 nM)
Cc1csc(-c2nc(NC3CCC(F)(F)CC3)cc(N3CCN4C(=O)OCC4C3)n2)n1 (stereo not drawn) [NSSy5774] | ++ (++ means 200 nM-1000 nM)
COCc1cc(NC2CCC(F)(F)CC2)nc(-c2nc(C)cs2)n1 [NSSy5779, N-(4,4-difluorocyclohexyl)-6-(methoxymethyl)-2-(4-methylthiazol-2-yl)pyrimidin-4-amine] | ++ (++ means 200 nM-1000 nM)
COC(=O)N1CC(Oc2cc(NC3CC=CCC3)nc(-n3ccc(C)n3)n2)C1 (stereo not drawn) [NSSy5786] | ++ (++ means 200 nM-1000 nM)
Cc1csc(-c2nc(NC3CCC(F)(F)CC3)cc(N3CCC(C4COC4)CC3)n2)n1 [NSSy5787] | ++ (++ means 200 nM-1000 nM)

Structure (SMILES) | SC100 (μM)
COCC1CN(c2cc(NC3CCC(F)(F)CC3)nc(-c3nc(C)cs3)n2)CCO1 (stereo not drawn) [NSSy5789] | +++ (+++ means <200 nM)
Cc1csc(-c2nc(NC3CCC(F)(F)CC3)cc(N3CCN(C4COC4)CC3)n2)n1 [NSSy5792] | ++ (++ means 200 nM-1000 nM)
COC[C@@H]1CN(c2cc(NC3CCC(F)(F)CC3)nc(-c3nc(C)cs3)n2)CCO1 [NSSy5795] | ++ (++ means 200 nM-1000 nM)
COC[C@H]1CN(c2cc(NC3CCC(F)(F)CC3)nc(-c3nc(C)cs3)n2)CCO1 [NSSy5796] | +++ (+++ means <200 nM)
COCC1CN(c2cc(NC3CCC(F)(F)CC3)nc(-c3nc(C)cs3)c2)CCO1 (stereo not drawn) [NSSy5807] | +++ (+++ means <200 nM)
Cc1cc(C)n(-c2cc3c(ncn3C3COC3)c(NC3CCC(F)(F)CC3)n2)n1 [NSSy5808, N-(4,4-difluorocyclohexyl)-6-(3,5-dimethyl-1H-pyrazol-1-yl)-1-(oxetan-3-yl)-1H-imidazo[4,5-c]pyridin-4-amine] | ++ (++ means 200 nM-1000 nM)
Cc1csc(-c2cc(N3CCC(C4COC4)CC3)cc(NC3CCC(F)(F)CC3)n2)n1 [NSSy5815] | ++ (++ means 200 nM-1000 nM)
COCc1cc(NC2CCC(F)(F)CC2)nc(-c2nc(C)co2)n1 [NSSy5818, N-(4,4-difluorocyclohexyl)-6-(methoxymethyl)-2-(4-methyloxazol-2-yl)pyrimidin-4-amine] | + (+ means >1 uM)
Cc1csc(-c2cc(N3CCN(C4COC4)CC3)cc(NC3CCC(F)(F)CC3)n2)n1 [NSSy5819] | ++ (++ means 200 nM-1000 nM)
Cc1csc(-c2cc(N3CCN4C(=O)OCC4C3)cc(NC3CCC(F)(F)CC3)n2)n1 (stereo not drawn) [NSSy5824] | +++ (+++ means <200 nM)
Cc1ccn(-c2cc(C#N)cc(NC3CCC(F)(F)CC3)n2)n1 [NSSy5826] | ++ (++ means 200 nM-1000 nM)
Cc1ccn(-c2cc(CO)cc(NC3CCC(F)(F)CC3)n2)n1 [NSSy5827] | ++ (++ means 200 nM-1000 nM)
Cc1ccc(OCc2cc(NC3CCC(F)(F)CC3)nc(-n3ccc(C)n3)c2)nn1 [NSSy5828, N-(4,4-difluorocyclohexyl)-6-(3-methyl-1H-pyrazol-1-yl)-4-(((6-methylpyridazin-3-yl)oxy)methyl)pyridin-2-amine] | +++ (+++ means <200 nM)
Cc1ccn(-c2cc(CF)cc(NC3CCC(F)(F)CC3)n2)n1 [NSSy5829, N-(4,4-difluorocyclohexyl)-4-(fluoromethyl)-6-(3-methyl-1H-pyrazol-1-yl)pyridin-2-amine] | ++ (++ means 200 nM-1000 nM)
C/C(=N\O)Nc1cc(NC2CCC(F)(F)CC2)nc(-c2nc(C)no2)n1 [NSSy5830, (E)-N-(6-((4,4-difluorocyclohexyl)amino)-2-(3-methyl-1,2,4-oxadiazol-5-yl)pyrimidin-4-yl)-N′-hydroxyacetimidamide] | + (+ means >1 uM)
Cc1nsc(-c2nc(NC3CCC(F)(F)CC3)cc(N3CCOCC3)n2)n1 [NSSy5832] | + (+ means >1 uM)
Cc1noc(-c2nc(NC3CCC(F)(F)CC3)cc(N3CCOCC3)n2)n1 [NSSy5835, N-(4,4-difluorocyclohexyl)-2-(3-methyl-1,2,4-oxadiazol-5-yl)-6-morpholinopyrimidin-4-amine] | + (+ means >1 uM)
Cc1csc(-c2cc(N3CCN4C(=O)OC[C@@H]4C3)cc(NC3CCC(F)(F)CC3)n2)n1 [NSSy5837] | +++ (+++ means <200 nM)
Cc1csc(-c2cc(N3CCN4C(=O)OC[C@H]4C3)cc(NC3CCC(F)(F)CC3)n2)n1 [NSSy5838] | +++ (+++ means <200 nM)
